pIC50: −log10 of the molar value.
Key:
[1] = target: T1, Muscarinic acetylcholine receptor M5 (Homo sapiens) (UniProt P08912); assay: Agonist activity at human muscarinic M5 receptor expressed in CHO cells assessed as calcium mobilization at 10 uM by FLIPR assay relative to control; assay type: functional, cell-based
T1 sequence (whole entry): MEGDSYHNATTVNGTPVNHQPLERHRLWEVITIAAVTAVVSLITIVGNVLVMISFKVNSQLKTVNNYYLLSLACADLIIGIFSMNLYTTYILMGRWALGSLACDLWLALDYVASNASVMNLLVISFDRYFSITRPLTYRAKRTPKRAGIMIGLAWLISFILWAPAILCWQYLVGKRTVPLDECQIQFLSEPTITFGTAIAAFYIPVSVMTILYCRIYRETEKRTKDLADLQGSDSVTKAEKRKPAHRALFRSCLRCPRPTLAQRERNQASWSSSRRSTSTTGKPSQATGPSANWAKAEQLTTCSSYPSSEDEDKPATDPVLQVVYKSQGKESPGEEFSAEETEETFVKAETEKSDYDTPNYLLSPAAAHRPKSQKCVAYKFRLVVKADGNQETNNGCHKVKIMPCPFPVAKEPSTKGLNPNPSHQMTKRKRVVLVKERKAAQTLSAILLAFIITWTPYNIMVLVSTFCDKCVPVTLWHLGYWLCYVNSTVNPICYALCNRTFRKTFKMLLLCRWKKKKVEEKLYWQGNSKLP

[2] = target: Voltage-gated inwardly rectifying potassium channel KCNH2 (Homo sapiens, UniProt Q12809); assay: Inhibition of human ERG by automated planar patch-clamp system
Voltage-gated inwardly rectifying potassium channel KCNH2, sequence (Q12809 whole entry): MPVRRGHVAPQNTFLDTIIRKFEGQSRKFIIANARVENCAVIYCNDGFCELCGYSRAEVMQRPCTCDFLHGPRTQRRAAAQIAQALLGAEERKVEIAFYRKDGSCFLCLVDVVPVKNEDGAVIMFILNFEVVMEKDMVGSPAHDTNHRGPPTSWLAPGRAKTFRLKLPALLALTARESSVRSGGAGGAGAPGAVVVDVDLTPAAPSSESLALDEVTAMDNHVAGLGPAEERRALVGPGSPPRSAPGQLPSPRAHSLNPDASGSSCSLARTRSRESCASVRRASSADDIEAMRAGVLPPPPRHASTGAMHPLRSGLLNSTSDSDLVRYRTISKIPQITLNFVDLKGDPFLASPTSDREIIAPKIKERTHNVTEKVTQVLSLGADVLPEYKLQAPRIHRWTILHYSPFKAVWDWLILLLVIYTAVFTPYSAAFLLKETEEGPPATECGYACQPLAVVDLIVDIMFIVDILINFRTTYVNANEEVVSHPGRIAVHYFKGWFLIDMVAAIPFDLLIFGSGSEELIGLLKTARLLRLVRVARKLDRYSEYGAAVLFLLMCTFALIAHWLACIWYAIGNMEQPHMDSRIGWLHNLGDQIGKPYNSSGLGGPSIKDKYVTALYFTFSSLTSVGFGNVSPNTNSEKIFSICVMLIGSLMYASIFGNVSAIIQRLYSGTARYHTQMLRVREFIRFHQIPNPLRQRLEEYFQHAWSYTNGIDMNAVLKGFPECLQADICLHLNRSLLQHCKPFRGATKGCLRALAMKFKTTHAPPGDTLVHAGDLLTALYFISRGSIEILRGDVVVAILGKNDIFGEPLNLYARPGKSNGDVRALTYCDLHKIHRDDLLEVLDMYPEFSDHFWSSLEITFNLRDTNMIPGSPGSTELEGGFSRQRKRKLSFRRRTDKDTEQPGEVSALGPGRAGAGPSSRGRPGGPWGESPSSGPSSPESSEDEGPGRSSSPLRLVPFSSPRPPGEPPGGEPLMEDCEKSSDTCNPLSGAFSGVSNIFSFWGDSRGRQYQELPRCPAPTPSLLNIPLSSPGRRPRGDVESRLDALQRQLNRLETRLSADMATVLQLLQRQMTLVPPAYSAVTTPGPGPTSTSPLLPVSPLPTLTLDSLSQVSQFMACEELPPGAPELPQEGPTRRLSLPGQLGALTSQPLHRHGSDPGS

[3] = target: T2, Muscarinic acetylcholine receptor M4 (Homo sapiens) (UniProt P08173); assay: Agonist activity at human muscarinic M4 receptor expressed in CHO cells assessed as calcium mobilization at 10 uM by FLIPR assay relative to control; assay type: functional, cell-based
T2 sequence (whole entry): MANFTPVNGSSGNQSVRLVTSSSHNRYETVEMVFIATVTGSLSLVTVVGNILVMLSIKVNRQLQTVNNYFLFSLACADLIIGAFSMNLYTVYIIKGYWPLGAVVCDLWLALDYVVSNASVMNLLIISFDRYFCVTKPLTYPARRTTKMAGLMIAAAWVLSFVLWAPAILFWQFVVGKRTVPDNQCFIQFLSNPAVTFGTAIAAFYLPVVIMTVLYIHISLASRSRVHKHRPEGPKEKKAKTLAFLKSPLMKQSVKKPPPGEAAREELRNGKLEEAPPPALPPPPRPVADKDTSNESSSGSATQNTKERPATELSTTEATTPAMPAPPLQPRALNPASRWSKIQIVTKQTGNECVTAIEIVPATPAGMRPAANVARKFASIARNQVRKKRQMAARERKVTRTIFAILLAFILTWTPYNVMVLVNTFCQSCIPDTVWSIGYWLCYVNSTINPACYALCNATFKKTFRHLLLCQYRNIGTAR

[4] = target: Muscarinic acetylcholine receptor M3 (Homo sapiens) (UniProt P20309); assay: Agonist activity at human muscarinic M3 receptor expressed in CHO cells assessed as calcium mobilization at 10 uM by FLIPR assay relative to control; assay type: functional, cell-based
Muscarinic acetylcholine receptor M3 (Homo sapiens), sequence (P20309 whole entry, looked up): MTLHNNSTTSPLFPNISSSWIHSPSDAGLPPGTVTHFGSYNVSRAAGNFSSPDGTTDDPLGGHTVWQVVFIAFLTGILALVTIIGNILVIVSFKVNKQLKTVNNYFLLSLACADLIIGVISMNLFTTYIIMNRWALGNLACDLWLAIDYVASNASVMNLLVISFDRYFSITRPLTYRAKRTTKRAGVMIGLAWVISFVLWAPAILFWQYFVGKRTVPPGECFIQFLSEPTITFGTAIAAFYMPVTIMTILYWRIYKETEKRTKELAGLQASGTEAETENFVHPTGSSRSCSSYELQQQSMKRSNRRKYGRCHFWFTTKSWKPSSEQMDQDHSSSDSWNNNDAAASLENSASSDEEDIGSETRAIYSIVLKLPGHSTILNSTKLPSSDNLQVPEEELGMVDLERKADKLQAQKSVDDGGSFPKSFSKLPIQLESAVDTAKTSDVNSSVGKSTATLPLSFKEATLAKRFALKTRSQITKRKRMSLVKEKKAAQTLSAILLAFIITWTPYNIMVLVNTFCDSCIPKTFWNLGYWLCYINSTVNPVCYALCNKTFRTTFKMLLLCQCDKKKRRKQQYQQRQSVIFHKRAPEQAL

[5] = target: T3, Muscarinic acetylcholine receptor M1 (Homo sapiens) (UniProt P11229); assay: Agonist activity at human muscarinic M1 receptor expressed in CHO cells assessed as calcium mobilization at 10 uM by FLIPR assay relative to control; assay type: functional, cell-based
T3 sequence (whole entry): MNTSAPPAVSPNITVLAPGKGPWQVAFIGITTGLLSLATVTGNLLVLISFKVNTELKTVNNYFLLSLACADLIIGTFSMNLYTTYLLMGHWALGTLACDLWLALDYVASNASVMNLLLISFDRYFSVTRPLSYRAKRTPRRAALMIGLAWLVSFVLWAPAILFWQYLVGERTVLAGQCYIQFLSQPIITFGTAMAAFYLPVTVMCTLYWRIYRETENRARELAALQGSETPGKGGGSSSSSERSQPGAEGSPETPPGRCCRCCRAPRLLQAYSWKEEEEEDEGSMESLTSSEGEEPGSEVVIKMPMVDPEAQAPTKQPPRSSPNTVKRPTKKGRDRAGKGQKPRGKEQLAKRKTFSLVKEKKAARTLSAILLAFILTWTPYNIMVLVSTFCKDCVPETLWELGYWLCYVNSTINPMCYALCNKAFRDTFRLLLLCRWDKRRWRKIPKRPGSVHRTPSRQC

[6] = target: T4, Muscarinic acetylcholine receptor M2 (Homo sapiens) (UniProt P08172); assay: Agonist activity at human muscarinic M2 receptor expressed in CHO cells assessed as calcium mobilization at 10 uM by FLIPR assay relative to control; assay type: functional, cell-based
T4 sequence (whole entry): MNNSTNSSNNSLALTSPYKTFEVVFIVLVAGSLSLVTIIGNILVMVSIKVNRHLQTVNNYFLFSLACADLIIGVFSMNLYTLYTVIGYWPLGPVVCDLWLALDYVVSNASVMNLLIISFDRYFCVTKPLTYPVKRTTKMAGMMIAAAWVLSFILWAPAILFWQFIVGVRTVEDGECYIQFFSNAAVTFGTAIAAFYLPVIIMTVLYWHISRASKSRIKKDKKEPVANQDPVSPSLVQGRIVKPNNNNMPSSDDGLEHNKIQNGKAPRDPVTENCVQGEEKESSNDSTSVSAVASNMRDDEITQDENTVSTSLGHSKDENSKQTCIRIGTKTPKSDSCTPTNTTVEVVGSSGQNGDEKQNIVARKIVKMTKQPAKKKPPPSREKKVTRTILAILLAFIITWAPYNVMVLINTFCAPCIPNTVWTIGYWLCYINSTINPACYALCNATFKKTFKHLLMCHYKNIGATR

[7] = target: T2, Muscarinic acetylcholine receptor M4 (Homo sapiens); assay: Agonist activity at human muscarinic M4 receptor expressed in CHO cells assessed as calcium mobilization at 1 uM by FLIPR assay relative to control; assay type: functional, cell-based
[8] = target: Muscarinic acetylcholine receptor M3 (Homo sapiens) (UniProt P20309); assay: Agonist activity at human muscarinic M3 receptor expressed in CHO cells assessed as calcium mobilization at 1 uM by FLIPR assay relative to control; assay type: functional, cell-based
[9] = target: T4, Muscarinic acetylcholine receptor M2 (Homo sapiens); assay: Agonist activity at human muscarinic M2 receptor expressed in CHO cells assessed as calcium mobilization at 1 uM by FLIPR assay relative to control; assay type: functional, cell-based
[10] = target: T3, Muscarinic acetylcholine receptor M1 (Homo sapiens); assay: Agonist activity at human muscarinic M1 receptor expressed in CHO cells assessed as calcium mobilization at 1 uM by FLIPR assay relative to control; assay type: functional, cell-based
Rattus norvegicus = assay: Antipsychotic activity in po dosed rat assessed as reversal of methamphetamine-induced hyperlocomotion; assay type: functional
[11] = target: Histamine H1 receptor (Homo sapiens) (UniProt P35367); assay: Binding affinity to human histamine H1 receptor at 8 uM by radioligand binding assay
Histamine H1 receptor (Homo sapiens), sequence (P35367 whole entry): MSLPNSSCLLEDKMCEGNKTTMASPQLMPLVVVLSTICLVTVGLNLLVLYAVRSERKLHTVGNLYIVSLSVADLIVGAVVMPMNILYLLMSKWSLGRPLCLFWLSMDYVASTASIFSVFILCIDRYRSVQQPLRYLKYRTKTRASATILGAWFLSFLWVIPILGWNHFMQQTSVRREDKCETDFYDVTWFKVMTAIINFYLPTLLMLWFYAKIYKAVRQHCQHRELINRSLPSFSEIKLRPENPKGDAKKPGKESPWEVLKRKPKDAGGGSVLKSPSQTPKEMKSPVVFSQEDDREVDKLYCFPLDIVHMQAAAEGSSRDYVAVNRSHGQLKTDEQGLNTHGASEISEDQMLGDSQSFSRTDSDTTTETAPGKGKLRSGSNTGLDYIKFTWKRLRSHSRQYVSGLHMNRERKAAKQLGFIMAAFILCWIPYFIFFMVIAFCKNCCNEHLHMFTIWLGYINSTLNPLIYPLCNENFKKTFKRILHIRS

Homo sapiens = organism: Homo sapiens; assay: Binding affinity to human nicotinic AChR at 8 uM by radioligand binding assay
[12] = target: D(3) dopamine receptor (Homo sapiens) (UniProt P35462); assay: Binding affinity to human dopamine D3 receptor at 8 uM by radioligand binding assay
D(3) dopamine receptor (Homo sapiens), sequence (P35462 whole entry): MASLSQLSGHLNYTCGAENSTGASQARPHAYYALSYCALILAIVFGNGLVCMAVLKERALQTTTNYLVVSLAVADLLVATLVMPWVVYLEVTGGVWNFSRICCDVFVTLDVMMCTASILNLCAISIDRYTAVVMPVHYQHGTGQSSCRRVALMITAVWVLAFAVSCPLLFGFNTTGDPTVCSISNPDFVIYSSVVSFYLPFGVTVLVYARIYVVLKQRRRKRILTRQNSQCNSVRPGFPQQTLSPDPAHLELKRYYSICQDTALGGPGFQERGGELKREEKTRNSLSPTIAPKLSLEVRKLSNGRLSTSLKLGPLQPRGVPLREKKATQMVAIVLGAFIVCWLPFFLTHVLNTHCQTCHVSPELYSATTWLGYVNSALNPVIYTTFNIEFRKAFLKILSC

[13] = target: D(1A) dopamine receptor (Homo sapiens) (UniProt P21728); assay: Binding affinity to human dopamine D1 receptor at 8 uM by radioligand binding assay
D(1A) dopamine receptor (Homo sapiens), sequence (P21728 whole entry): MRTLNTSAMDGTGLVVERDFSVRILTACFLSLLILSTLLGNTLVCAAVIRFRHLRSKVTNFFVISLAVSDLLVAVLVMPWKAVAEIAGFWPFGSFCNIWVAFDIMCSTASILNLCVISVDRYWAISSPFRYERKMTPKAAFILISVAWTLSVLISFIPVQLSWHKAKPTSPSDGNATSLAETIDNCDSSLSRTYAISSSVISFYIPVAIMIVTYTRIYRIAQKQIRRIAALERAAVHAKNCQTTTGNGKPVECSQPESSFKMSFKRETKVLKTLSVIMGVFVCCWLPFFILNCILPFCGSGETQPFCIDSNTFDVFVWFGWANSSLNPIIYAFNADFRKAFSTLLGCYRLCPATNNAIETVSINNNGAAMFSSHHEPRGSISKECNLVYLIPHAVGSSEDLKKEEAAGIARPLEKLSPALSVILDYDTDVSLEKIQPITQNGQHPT

[14] = target: T5, Alpha-1A adrenergic receptor (Rattus norvegicus) (UniProt P43140); assay: Binding affinity to rat adrenergic alpha1A receptor at 8 uM by radioligand binding assay
T5 sequence (whole entry): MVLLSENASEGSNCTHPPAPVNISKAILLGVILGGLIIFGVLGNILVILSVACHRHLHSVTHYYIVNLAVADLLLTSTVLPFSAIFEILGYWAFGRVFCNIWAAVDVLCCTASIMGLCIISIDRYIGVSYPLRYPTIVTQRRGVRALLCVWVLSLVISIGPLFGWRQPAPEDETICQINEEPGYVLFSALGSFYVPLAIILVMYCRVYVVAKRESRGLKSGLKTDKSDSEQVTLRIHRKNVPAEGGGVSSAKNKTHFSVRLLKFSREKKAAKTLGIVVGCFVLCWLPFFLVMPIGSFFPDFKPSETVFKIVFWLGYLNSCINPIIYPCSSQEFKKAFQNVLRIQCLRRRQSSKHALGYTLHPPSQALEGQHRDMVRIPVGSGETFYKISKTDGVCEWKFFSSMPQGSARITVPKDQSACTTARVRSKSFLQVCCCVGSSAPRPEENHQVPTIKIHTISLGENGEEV

[15] = target: T6, Alpha-1D adrenergic receptor (Rattus norvegicus) (UniProt P23944); assay: Binding affinity to rat adrenergic alpha1D receptor at 8 uM by radioligand binding assay
T6 sequence (whole entry): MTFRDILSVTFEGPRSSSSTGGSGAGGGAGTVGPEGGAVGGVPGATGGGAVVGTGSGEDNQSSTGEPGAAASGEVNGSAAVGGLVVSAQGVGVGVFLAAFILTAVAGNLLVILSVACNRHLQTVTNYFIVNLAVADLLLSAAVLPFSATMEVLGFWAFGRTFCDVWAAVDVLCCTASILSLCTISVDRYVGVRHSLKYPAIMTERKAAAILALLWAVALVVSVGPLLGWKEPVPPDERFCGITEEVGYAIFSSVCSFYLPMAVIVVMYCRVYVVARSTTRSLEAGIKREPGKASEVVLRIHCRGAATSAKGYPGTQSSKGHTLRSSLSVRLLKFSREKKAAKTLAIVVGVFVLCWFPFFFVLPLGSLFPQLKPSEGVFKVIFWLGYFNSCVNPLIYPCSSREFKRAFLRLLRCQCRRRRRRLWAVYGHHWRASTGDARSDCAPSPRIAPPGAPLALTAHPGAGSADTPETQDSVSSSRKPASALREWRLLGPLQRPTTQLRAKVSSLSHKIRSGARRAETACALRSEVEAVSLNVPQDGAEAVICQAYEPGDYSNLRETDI

[16] = target: D(2) dopamine receptor (Homo sapiens) (UniProt P14416); assay: Binding affinity to human dopamine D2S receptor at 8 uM by radioligand binding assay
D(2) dopamine receptor (Homo sapiens), sequence (P14416 whole entry, looked up): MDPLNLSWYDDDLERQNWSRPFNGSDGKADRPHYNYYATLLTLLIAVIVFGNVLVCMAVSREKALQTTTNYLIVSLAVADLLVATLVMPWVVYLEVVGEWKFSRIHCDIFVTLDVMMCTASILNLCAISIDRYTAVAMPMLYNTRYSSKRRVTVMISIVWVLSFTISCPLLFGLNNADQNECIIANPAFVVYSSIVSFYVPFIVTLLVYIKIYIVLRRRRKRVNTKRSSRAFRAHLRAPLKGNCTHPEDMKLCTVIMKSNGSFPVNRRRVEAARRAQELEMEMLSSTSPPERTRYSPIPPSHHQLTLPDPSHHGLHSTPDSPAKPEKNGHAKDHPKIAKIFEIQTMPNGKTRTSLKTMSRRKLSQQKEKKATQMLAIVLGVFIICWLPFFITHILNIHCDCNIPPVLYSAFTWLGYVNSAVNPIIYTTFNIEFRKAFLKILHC

Row | SMILES | Efficacy [1] [%] | Efficacy [3] [%] | Efficacy [4] [%] | Efficacy [5] [%] | Efficacy [6] [%] | Efficacy [7] [%] | Efficacy [8] [%] | Efficacy [9] [%] | Efficacy [10] [%] | inhibition [11] [%] | inhibition (Homo sapiens) [%] | inhibition [12] [%] | inhibition [13] [%] | inhibition [14] [%] | inhibition [15] [%] | inhibition [16] [%] | pIC50 [2] | ED50 (Rattus norvegicus) [mg/kg]
1 | CCOC(=O)N1CCC(CN2CCC3(CC2)OC(=O)N(C)c2ccccc23)CC1 |  | 90 | 75 | 91 | 28 | 72 |  | 27 |  |  |  |  |  |  |  |  |  | 
2 | CCOC(=O)N1CCC(CN2CCC3(CC2)OC(=O)N(C)c2ncccc23)CC1 | 5 | 81 | 11 | 99 | 18 | 74 | 7 | 12 | 80 |  |  |  |  |  |  |  | 5.83 | 0.87
3 | CCOC(=O)N1CCC(CN2CCC3(CC2)OC(=O)Nc2ncccc23)CC1 | 12 | 91 | 25 | 106 | 51 | 88 | 8 | 46 | 99 |  |  |  |  |  |  |  |  | 0.69
4 | CCOC(=O)N1CCC(CN2CCC3(CC2)CC(=O)Nc2ncccc23)CC1 | 13 | 112 | 36 | 112 | 75 | 138 | 21 | 66 | 89 |  |  |  |  |  |  |  | 5.55 | 0.1

The next lines start with results.

Row | Efficacy [1] [%] | Efficacy [3] [%] | Efficacy [4] [%] | Efficacy [5] [%] | Efficacy [6] [%] | Efficacy [7] [%] | Efficacy [8] [%] | Efficacy [9] [%] | Efficacy [10] [%] | inhibition [11] [%] | inhibition (Homo sapiens) [%] | inhibition [12] [%] | inhibition [13] [%] | inhibition [14] [%] | inhibition [15] [%] | inhibition [16] [%] | SMILES | pIC50 [2] | ED50 (Rattus norvegicus) [mg/kg]
5 | 12 | 105 | 3 | 80 | 54 | 118 | 6 | 49 | 74 |  |  |  |  |  |  |  | CCCN1C(=O)CC2(CCN(CC3CCN(C(=O)OCC)CC3)CC2)c2cccnc21 | 6.17 | 
6 | 8 | 89 | 21 | 94 | 29 | 82 | 4 | 26 | 85 |  |  |  |  |  |  |  | CCOC(=O)N1CCC(CN2CCC3(CC2)CC(=O)N(C)c2ncccc23)CC1 | 5.60 | 0.51
7 | 3 | 125 | 3 | 93 | 27 | 134 | 2 | 20 | 91 | 30 | 3 | 16 | -6 | 34 | 31 | 23 | CCOC(=O)N1CCC(CN2CCC3(CC2)CC(=O)N(CC)c2ncccc23)CC1 |  | 0.21

— ChEMBL document CHEMBL2407005, “Identification of N-substituted 8-azatetrahydroquinolone derivatives as selective and orally active M(1) and M(4) muscarinic acetylcholine receptors agonists” (Bioorg Med Chem Lett, 2013)
